Literature values in article PMC12741935 (Alzheimer's & Dementia, 2025).

System: kinome; broad panel of proteases, receptors, and bromodomains
Conditions: cited from earlier work

Structure (SMILES): CC(C)NC(=O)N1CC[C@H](NC2=Nc3cc(F)ccc3N(CC(F)F)c3ccc(Cl)cc32)C1 [NVS‐PAK1‐1, (S)‐3‐([2‐chloro‐5‐(2,2‐difluoroethyl)‐8‐fluoro‐5H‐dibenzo[b,e][1,4]diazepin‐11‐yl]amino)‐N‐isopropylpyrrolidine‐1‐carboxamide]
- cross-reactivity with a broad panel of proteases, receptors, and bromodomains: no significant cross‐reactivity
